The text below walks through data of patent US11542259B2, “Compounds for the treatment of kinase-dependent disorders” (Exelixis, Inc., priority 2018, dated 2023).

As a reminder, the clearance is a measure of how efficiently the substance is removed, as volume per time. A high value points to efficient removal. What is called Cmax is the highest concentration seen after dosing.

This data set can be described thus: Pharmacokinetic studies in male Sprague-Dawley rats. Format: in vivo. The following applies: rat; for clearance / half-life / Cmax: male, Sprague-Dawley, plasma; for half-life: read-out: t½. The method, then: Pharmacokinetic properties of select compounds were assessed in male Sprague-Dawley rats.
The non-GLP study was designed to investigate the pharmacokinetics of chosen compounds in plasma following an intravenous or oral dose administration to male Sprague Dawley rats. […]
Animals in the PO group were fasted overnight prior to dose administration. Food was returned following the collection of the 4-hour blood sample. Water was not withheld.
Immediately prior to dosing, the body weight of each animal was recorded. Doses (rounded to the nearest 0.001 mL) were calculated based on the pretreatment body weight (kg) and a dose volume of 2.5 mL/kg for intravenous administration and 5 mL/kg for oral administration. Intravenous formulations were administered via a jugular vein cannula. Immediately after dosing, the cannula was flushed with saline and the line was tied off. The oral dose was administered via a ball-tipped feeding needle. Dosing syringe volumes for administration were second-person verified prior to dosing and that volume along with the results for the concentration verification analysis were used to calculate the actual dose administered. Dosing syringes were weighed immediately prior to and immediately after dosing each animal as a gravimetric check.
Serial blood samples (approximately 200 μL per sample) were collected from each animal at 0.083 (IV dosing only), 0.25, 0.5, 1, 2, 4, 6 (PO dosing only), 8, 24, 32, 48, and 72 hours after dosing. Blood samples were collected into tubes containing K2EDTA via the non-dosing jugular-vein cannula (JVC), which was flushed with an approximately equal volume of saline following each collection.
Blood samples were stored on wet ice until processed to plasma by centrifugation (3500 rpm at 5° C. for 10 minutes) within 1 hour of collection. Plasma samples were transferred into matrix tubes and then stored in a −80° C. freezer.
Plasma samples and dose formulation samples were analyzed for the compounds of interest using liquid chromatography-tandem mass spectrometry (LC-MS/MS) methods. Pharmacokinetic parameter estimates were calculated from the individual animal plasma concentration-time data using the actual dose based on the analysis of the dosing formulations, nominal sampling times (all collections were within an acceptable range of target), and non-compartmental methods. The concentration-time data were analyzed to fit either an intravenous-bolus (IV) plasma analysis model (201) or extra-vascular (P0) dosing plasma analysis model (200) using the software WinNonlin Phoenix version 6.3 (Pharsight). The single-dose pharmacokinetic parameters assessed include, as appropriate: Cmax (observed peak or maximum concentration); Tmax (observed time of peak concentration); T1/2 (terminal half-life); Vz (volume of distribution based on the terminal phase); Vss (volume of distribution at steady state); AUCINF (area under the concentration-time curve computed from time zero to infinity); AUClast (area under the concentration-time curve computed from time zero to the time of the last quantifiable concentration); C0 (back-extrapolated concentration at time zero); CL (total body clearance); Vz/F (volume of distribution for extravascular administration based on the terminal phase); CL/F (total body clearance for extravascular administration); F % (bioavailability); and MRTlast (mean residence time).
Areas-under-the-plasma concentration-time curves (AUC) were estimated using the linear-log trapezoidal rule. The area through the time (Tlast) of the last observable concentration (Clast) is reported as AUClast. AUC extrapolated to infinity, (AUCINF) was estimated by adding AUClast and the ratio of Clast/λz, where λz is the terminal rate constant. Apparent terminal half-life (T1/2) was calculated as ln(2)/λz and determined using the slope of the log-linear terminal phase of the concentration-time curve, defined by a minimum of three plasma concentration-time points. […]

Like-named read-outs stand apart in the source and are kept apart here.

Turning to `COc1cc2nccc(Oc3ccc(NC(=O)C4(C(=O)Nc5ccc(F)cc5)CC4)cc3)c2cc1C(N)=O` [Compound 7, 1-N-[4-(6-carbamoyl-7-methoxyquinolin-4-yl)oxyphenyl]-1-N′-(4-fluorophenyl)cyclopropane-1,1-dicarboxamide], under “IV (1 mg/kg)”, the clearance is 1.48 mL/min/kg and the half-life came to 186 min. Further, where the note is “PO (3 mg/kg)”, the Cmax turned out to be 8.8 µM and the half-life was determined as 438 min.

Consider `CNC(=O)c1cc2c(Oc3ccc(NC(=O)C4(C(=O)Nc5ccc(F)cc5)CC4)cc3)ccnc2cc1OC` [Compound 8, 1-N′-(4-fluorophenyl)-1-N-[4-[7-methoxy-6-(methylcarbamoyl)quinolin-4-yl]oxyphenyl]cyclopropane-1,1-dicarboxamide], for which, under “IV (3 mg/kg)”, the clearance amounted to 0.717 mL/min/kg and the half-life came to 324 min. In addition, under “PO (3 mg/kg)”, the concentration peaked (Cmax) at 11.4 µM and the half-life turned out to be 426 min.

On to `CCNC(=O)c1cc2c(Oc3ccc(NC(=O)C4(C(=O)Nc5ccc(F)cc5)CC4)cc3)ccnc2cc1OC` [Compound 9, 1-N-[4-[6-(ethylcarbamoyl)-7-methoxyquinolin-4-yl]oxyphenyl]-1-N′-(4-fluorophenyl)cyclopropane-1,1-dicarboxamide], for which, where the note is “IV (3 mg/kg)”, the clearance turned out to be 2.53 mL/min/kg and the half-life is 168 min. Also, for the setting “PO (3 mg/kg)”, the peak level (Cmax) was 3.9 µM, the half-life worked out at 156 min and the F entry was “F = 69%”.

On to `CONC(=O)c1cc2c(Oc3ccc(NC(=O)C4(C(=O)Nc5ccc(F)cc5)CC4)cc3)ccnc2cc1OC` [Compound 17, 1-N′-(4-fluorophenyl)-1-N-[4-[7-methoxy-6-(methoxycarbamoyl)quinolin-4-yl]oxyphenyl]cyclopropane-1,1-dicarboxamide], for which, under “IV (3.0 mg/kg)”, the clearance was found to be 1.7 mL/min/kg and the half-life stood at 180 min. Where the note is “PO (3.2 mg/kg)”, the highest level (Cmax) was 3.4 µM, the half-life stood at 270 min and the F result is recorded as “F = 46%”.

With `COc1cc2nccc(Oc3ccc(NC(=O)C4(C(=O)Nc5ccc(F)cc5)CC4)cc3)c2cc1-c1ncco1` [Compound 45, 1-N′-(4-fluorophenyl)-1-N-[4-[7-methoxy-6-(1,3-oxazol-2-yl)quinolin-4-yl]oxyphenyl]cyclopropane-1,1-dicarboxamide], under “IV (1 mg/kg)”, the clearance was 0.683 mL/min/kg and the half-life came to 606 min. In addition, where the note is “PO (3 mg/kg)”, the peak level (Cmax) was 15.3 µM and the half-life stood at 342 min.

With `COc1cc2nccc(Oc3ccc(NC(=O)C4(C(=O)Nc5ccc(F)cc5)CC4)cc3)c2cc1-c1ncc[nH]1` [Compound 191, 1-N′-(4-Fluorophenyl)-1-N-[4-[6-(1H-imidazol-2-yl)-7-methoxyquinolin-4-yl]oxyphenyl]cyclopropane-1,1-dicarboxamide], for the setting “IV (3.0 mg/kg)”, the clearance was 1.05 mL/min/kg and the half-life worked out at 594 min. Where the note is “PO (3.1 mg/kg)”, the Cmax amounted to 4.6 µM, the half-life amounted to 408 min and the F entry was “F = 38%”.

Regarding `COc1cc2nccc(Oc3ccc(NC(=O)C4(C(=O)Nc5ccc(F)cc5)CC4)cc3)c2cc1S(N)(=O)=O` [Compound 206, 1-N′-(4-Fluorophenyl)-1-N-[4-(7-methoxy-6-sulfamoylquinolin-4-yl)oxyphenyl]cyclopropane-1,1-dicarboxamide], under “IV (3 mg/kg)”, the clearance was determined as 8.52 mL/min/kg and the half-life is 126 min. Further, under “PO (3 mg/kg)”, the concentration peaked (Cmax) at 0.7 µM, the half-life was 174 min and the F entry is on record as “F = 37%”.
